Experimental findings from ChEMBL document CHEMBL5579818, “Identification of 3-(9H-carbazol-9-yl)-2-(1,3-dioxoisoindolin-2-yl)propanoic acids as promising DNMT1 inhibitors” (Eur J Med Chem, 2024) are described below.

Calls of active or inactive are those of the source. The calls are words filed in the database; no cut-off is given here. Some results are limits rather than exact numbers.

Experiment [1] deals with T1, DNA (cytosine-5)-methyltransferase 1 (Homo sapiens, UniProt P26358). The experiment in a line: Inhibition of DNMT1 (unknown origin) using semi-methylated DNA substrate preincubated for 15 mins followed by substrate and [3H-SAM] addition and measured after 60 mins by microbeta scintillation counting assay.
T1 sequence (P26358 whole entry): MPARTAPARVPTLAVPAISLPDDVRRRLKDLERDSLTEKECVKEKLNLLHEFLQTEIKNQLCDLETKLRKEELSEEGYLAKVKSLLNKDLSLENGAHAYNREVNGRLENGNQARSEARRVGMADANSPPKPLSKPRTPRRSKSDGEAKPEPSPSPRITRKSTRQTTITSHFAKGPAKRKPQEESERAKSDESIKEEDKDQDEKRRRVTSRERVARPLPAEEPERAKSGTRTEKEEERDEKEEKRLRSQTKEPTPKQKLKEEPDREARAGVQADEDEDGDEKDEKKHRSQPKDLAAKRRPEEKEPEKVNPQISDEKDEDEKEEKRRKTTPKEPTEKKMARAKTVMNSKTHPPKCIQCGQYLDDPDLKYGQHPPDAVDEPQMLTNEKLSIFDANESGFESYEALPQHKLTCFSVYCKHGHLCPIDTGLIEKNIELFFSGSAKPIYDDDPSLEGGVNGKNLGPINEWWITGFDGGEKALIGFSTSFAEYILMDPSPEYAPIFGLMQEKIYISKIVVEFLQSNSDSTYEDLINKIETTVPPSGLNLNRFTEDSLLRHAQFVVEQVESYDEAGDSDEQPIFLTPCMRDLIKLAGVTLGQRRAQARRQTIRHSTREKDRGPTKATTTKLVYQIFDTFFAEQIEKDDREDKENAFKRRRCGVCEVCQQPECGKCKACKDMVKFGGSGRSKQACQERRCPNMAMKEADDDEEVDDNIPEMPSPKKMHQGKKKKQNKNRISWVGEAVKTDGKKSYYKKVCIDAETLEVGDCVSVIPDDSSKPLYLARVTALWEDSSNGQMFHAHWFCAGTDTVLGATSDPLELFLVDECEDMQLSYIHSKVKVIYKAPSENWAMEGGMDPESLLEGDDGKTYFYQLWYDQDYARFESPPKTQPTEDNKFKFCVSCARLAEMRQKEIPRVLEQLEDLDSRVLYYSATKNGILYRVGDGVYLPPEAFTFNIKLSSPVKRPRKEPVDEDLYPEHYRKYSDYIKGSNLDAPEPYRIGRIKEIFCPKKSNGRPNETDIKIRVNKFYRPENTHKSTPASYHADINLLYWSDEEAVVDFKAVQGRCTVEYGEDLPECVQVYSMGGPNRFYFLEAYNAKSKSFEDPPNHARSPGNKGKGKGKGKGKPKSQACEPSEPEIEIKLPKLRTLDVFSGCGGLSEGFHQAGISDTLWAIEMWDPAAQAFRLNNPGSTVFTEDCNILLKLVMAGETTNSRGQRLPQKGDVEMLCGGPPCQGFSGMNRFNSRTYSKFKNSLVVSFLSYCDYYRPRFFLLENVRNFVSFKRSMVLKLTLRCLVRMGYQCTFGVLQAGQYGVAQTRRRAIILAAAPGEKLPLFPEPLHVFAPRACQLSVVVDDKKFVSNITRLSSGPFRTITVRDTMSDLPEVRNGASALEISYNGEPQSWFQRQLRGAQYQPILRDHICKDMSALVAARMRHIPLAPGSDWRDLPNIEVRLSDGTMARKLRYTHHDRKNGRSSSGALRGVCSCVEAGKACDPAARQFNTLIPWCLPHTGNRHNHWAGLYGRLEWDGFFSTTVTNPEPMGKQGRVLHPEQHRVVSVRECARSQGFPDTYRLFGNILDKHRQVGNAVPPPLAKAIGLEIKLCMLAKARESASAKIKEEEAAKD
Experiment [2] deals with HeLa. The experiment is described as follows: Antiproliferative activity against human HeLa cells at 100 uM incubated for 48 hrs by MTT assay. Format: functional. (In general: Tetrazolium dyes change colour on reduction, which living cells bring about.)
The subject of experiment [3] is SiHa. The experiment is described as follows: Antiproliferative activity against human SiHa cells at 100 uM incubated for 48 hrs by MTT assay. It counts as functional.
Experiment [4] deals with T1, DNA (cytosine-5)-methyltransferase 1. The experiment is described as follows: Inhibition of DNMT1 (unknown origin) at 250 uM using semi-methylated DNA substrate preincubated for 15 mins followed by substrate and [3H-SAM] addition and measured after 60 mins by microbeta scintillation counting assay relative to control. The conditions noted are these: time 75.0 min.
Experiment [5] concerns K562. The experiment is described as follows: Antiproliferative activity against human K562 cells at 100 uM incubated for 48 hrs by MTT assay. It counts as functional.
The subject of experiment [6] is A2780. The experiment in a line: Antiproliferative activity against human A2780 cells at 100 uM incubated for 48 hrs by MTT assay. Format: functional.
In experiment [7] the target is T1, DNA (cytosine-5)-methyltransferase 1. The experiment in a line: Binding affinity to human DNMT1 expressed in Escherichia coli assessed as response unit at 10 uM by SPR analysis. (SPR reads the build-up and loss of mass on a sensor chip optically.)
In experiment [8] the test system is SiHa. The experiment is described as follows: Antiproliferative activity against human SiHa cells incubated for 48 hrs by MTT assay. Format: functional, cell-based.
For experiment [9], the target named is T1, DNA (cytosine-5)-methyltransferase 1. The experiment in a line: Binding affinity to human DNMT1 expressed in Escherichia coli assessed as equilibrium dissociation constant by SPR analysis.
Experiment [10] relates to A2780. The experiment is described as follows: Antiproliferative activity against human A2780 cells incubated for 48 hrs by MTT assay. It counts as functional, cell-based. The conditions noted are these: A2780, 48 h.
In experiment [11] the test system is K562. The experiment is described as follows: Antiproliferative activity against human K562 cells incubated for 48 hrs by MTT assay. Format: functional, cell-based. The following applies: K562, 48 h.
Experiment [12] relates to HeLa. The experiment is described as follows: Antiproliferative activity against human HeLa cells incubated for 48 hrs by MTT assay. Format: functional, cell-based.
Experiment [13] deals with T1, DNA (cytosine-5)-methyltransferase 1. The experiment in a line: Binding affinity to human DNMT1 expressed in Escherichia coli assessed as binding constant by SPR analysis.

What is called IC50 is the concentration at which inhibition is half-maximal. A higher IC50 goes with lower potency. In turn, `O=C(O)C(Cn1c2ccc(Br)cc2c2cc(Br)ccc21)N1C(=O)c2ccccc2C1=O` (stereo in doubt; 7n-2) came in with an IC50 in experiment [1] of 38.2 µM.
The term inhibition denotes the share of the control response that was lost under treatment. A higher inhibition goes with a response far below the control. On to `O=C(O)C(Cn1c2ccccc2c2cc(I)ccc21)N1C(=O)c2ccccc2C1=O` (racemic), for which the Activity in [2], in experiment [3], in experiment [5] and in experiment [6] was <5% each time. Besides, the inhibition in experiment [4] is < 50%.
As to `Cc1ccc2c(c1)c1cc(C)ccc1n2CC(C(=O)O)N1C(=O)c2ccccc2C1=O` (racemic), the outcome in experiment [7] was Active. Besides, the inhibition in experiment [4] is > 75%.
By Kd is commonly meant the constant that tells how readily two partners part at equilibrium. `O=C(O)[C@@H](Cn1c2ccc(Cl)cc2c2cc(Cl)cc(Cl)c21)N1C(=O)c2ccccc2C1=O`: the IC50 in [8] turned out to be 83.2 µM; in experiment [1], 0.777 µM; in [10] it was 68.6 µM; in [11], 44.4 µM; in experiment [12] it was 89 µM. Besides, in [9], the Kd amounted to 0.127 µM.
As for `O=C(O)C(Cn1c2ccccc2c2cc(OCC3CO3)ccc21)N1C(=O)c2ccccc2C1=O` (racemic), the Activity in experiment [2], in experiment [3], in experiment [5] and in [6] was <5% in each case. In [4], the inhibition was < 50%.
Regarding `O=C(O)C(Cn1c2ccc(Cl)cc2c2cc(Cl)cc(Cl)c21)N1C(=O)c2ccccc2C1=O` (racemic), the IC50 is 78 µM in experiment [8], 72.8 µM in experiment [10], 45.8 µM in experiment [11] and 97.6 µM in experiment [12]. In addition, the Kd in experiment [9] stood at 0.16 µM. Moreover, the Activity worked out at 52% in experiment [2], 65.5 RU in experiment [7], 91% in [5] and 59% in [6]. Moreover, in [4], the inhibition was > 75%.
For `O=C(O)C(Cn1c2cc(Br)ccc2c2ccc(Br)cc21)N1C(=O)c2ccccc2C1=O` (racemic), the outcome in experiment [7] was Active. For the same compound, the inhibition in [4] was > 75%.
As to `O=C(O)C(Cn1c2ccc(I)cc2c2cc(I)ccc21)N1C(=O)c2ccccc2C1=O` (racemic) [listing 1 of 2 here], in [9], the Kd turned out to be 0.145 µM.
With `O=C(O)C(Cn1c2ccc(Cl)cc2c2cc(Cl)ccc21)N1C(=O)c2ccccc2C1=O` (racemic), the result in experiment [7] was Active. Also, the inhibition in [4] was > 75%.
Turning to `CC(C)(C)c1ccc2c(c1)c1cc(C(C)(C)C)ccc1n2CC(C(=O)O)N1C(=O)c2ccccc2C1=O` (racemic), the IC50 was found to be 43.3 µM in [8], 36.6 µM in experiment [10], 22.5 µM in experiment [11] and 60.5 µM in [12]. In addition, the dissociation constant Kd in experiment [9] was 0.841 µM. The Activity in experiment [2] stood at 79%; in experiment [7] it was 52.7 RU; in [5], 99%; in experiment [6], 98%. Also, the inhibition in experiment [4] is > 75%.
Regarding `O=C(O)C(Cn1c2ccccc2c2cc(Br)ccc21)N1C(=O)c2ccccc2C1=O` (racemic), the Activity in [2], in experiment [3], in experiment [5] and in experiment [6] was <5% each time. In addition, the inhibition in experiment [4] was < 50%.
As to `O=C(O)C(Cn1c2ccc(I)cc2c2cc(I)ccc21)N1C(=O)c2ccccc2C1=O` (stereo in doubt; 7o-2), in experiment [1], the IC50 stood at 43 µM.
Take `O=C(O)C(Cn1c2ccc(I)cc2c2cc(I)ccc21)N1C(=O)c2ccccc2C1=O` (racemic) [listing 2 of 2 here]: the Ka in experiment [13] is 239000 M⁻¹ s⁻¹. In experiment [7], the Activity is 57.9 RU. For the same compound, the inhibition in experiment [4] was > 75%.
For `CC(C)(C)c1ccc2c(c1)c1cc(C(C)(C)C)ccc1n2C[C@H](C(=O)O)N1C(=O)c2ccccc2C1=O`, the IC50 in experiment [8] was 54.9 µM; in experiment [1], 17.3 µM; in experiment [10] it was 34.6 µM; in experiment [11], 17 µM; in experiment [12] it was 59.9 µM. For the same compound, the Kd in [9] is 0.666 µM.
As to `O=C(O)C(Cn1c2ccc(Br)cc2c2cc(Br)ccc21)N1C(=O)c2ccccc2C1=O` (racemic), the Ka in experiment [13] is 34000 M⁻¹ s⁻¹. Also, in [7], the result was Active. In experiment [4], the inhibition is > 75%.
